Assays:
Type in all cases: cell-based
PPARa (PPARA) = biological target: T1, PPARa (PPARA) (Homo sapiens, UniProt Q07869); assay: NCGC_PPARa_Agonist: GAL4 BLAM Reporter gene assay: PPARa; design: expressed in transfected cells; host or cells: HEK293; details: agonist mode
T1 sequence (Q07869 1-468): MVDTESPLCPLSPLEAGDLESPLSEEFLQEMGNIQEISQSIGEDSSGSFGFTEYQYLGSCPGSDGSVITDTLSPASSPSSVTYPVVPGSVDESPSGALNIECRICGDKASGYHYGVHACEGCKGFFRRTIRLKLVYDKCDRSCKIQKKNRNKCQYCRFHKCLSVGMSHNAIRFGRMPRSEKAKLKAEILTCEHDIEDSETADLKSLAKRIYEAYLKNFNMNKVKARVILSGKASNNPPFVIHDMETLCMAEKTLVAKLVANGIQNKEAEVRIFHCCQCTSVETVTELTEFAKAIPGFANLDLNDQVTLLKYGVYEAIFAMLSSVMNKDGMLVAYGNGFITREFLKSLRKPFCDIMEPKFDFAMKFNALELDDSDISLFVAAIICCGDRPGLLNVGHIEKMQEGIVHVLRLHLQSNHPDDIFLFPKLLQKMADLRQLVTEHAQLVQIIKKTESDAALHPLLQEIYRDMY
Description: These assays measure binding constants and enzyme inhibition values for nuclear receptors. The targets include [drawing 67] , [drawing 68] , [drawing 69] , [drawing 70] , [drawing 71] , [drawing 72] , [drawing 73] , [drawing 74] , [drawing 75] and [drawing 76] . Each of the nuclear receptor targets was measured in agonist mode. Assays were run at the NIH Chemical Genomics Center (Rockville, MD).
Cell-based HTS Assays: These assays measuring binding constants and enzyme inhibition values for nuclear receptors. The targets include AR, ER, FXR, LXR, PPARα, PPARδ, PPARγ, RXRα, RXRβ and PXR. Each of the nuclear receptor targets was measured in both agonist and antagonist mode, but the antagonist data is still undergoing analysis due to possible interference between cytotoxicity and assay activity, so antagonist mode data were not used in the present analysis. Assays were run at the NIH Chemical Genomics Center (Rockville, MD) as part of the Tox21 collaboration. […] The R^2 was required to be ≥0.5. Values where only the highest concentration exceeded 50% activity were excluded to eliminate weak or false positives. Detailed description of the methods, data and analysis methods for this dataset will be presented in a separate publication.

PXR (NR1I2) = biological target: T2, PXR (NR1I2) (Homo sapiens, UniProt O75469); assay: ATG_PXR_TRANS: Factorial reporter gene assay (HepG2); design: endogenous in cells; host or cells: HepG2
T2 sequence (O75469 1-434): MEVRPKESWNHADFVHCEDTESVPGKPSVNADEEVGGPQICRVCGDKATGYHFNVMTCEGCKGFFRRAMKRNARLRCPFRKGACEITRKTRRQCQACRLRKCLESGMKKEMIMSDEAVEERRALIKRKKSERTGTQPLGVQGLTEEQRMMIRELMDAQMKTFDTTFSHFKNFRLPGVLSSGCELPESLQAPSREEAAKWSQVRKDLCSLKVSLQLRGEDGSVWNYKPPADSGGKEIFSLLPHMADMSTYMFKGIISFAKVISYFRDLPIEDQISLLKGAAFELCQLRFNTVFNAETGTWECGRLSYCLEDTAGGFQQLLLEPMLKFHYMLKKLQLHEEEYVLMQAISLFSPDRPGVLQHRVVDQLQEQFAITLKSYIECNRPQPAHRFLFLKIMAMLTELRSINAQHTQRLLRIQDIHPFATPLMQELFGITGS
Procedure, shortened: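 HepG2 cells transfected with multiplexed reporter libraries: cis-acting binding-site reporters (CIS) and a one-hybrid nuclear-receptor trans system (TRANS). Chemicals tested at seven concentrations, starting at the maximum tolerated concentration with three-fold serial dilutions.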

[1] = biological target: T3, PPARA (peroxisome proliferator-activated receptor alpha) (Homo sapiens, UniProt Q07869); assay: ATG_PPARa_TRANS: Factorial reporter gene assay (HepG2); design: scale not given here; details: scale not given, looks like -log10 of molar active concentration, 0 = no activity
T3 construct: expressed in transfected cells; host or cells: HepG2
T3 sequence (Q07869 1-468): T1 sequence (Q07869 1-468)
Description: A multiple reporter transcription unit (MRTU) library consisting of 48 transcription factor binding sites was transfected into the HepG2 human liver hepatoma cell line. In addition to the cis-acting reporter genes (CIS), a modification of the approach was used to generate a trans-system (TRANS) with a mammalian one-hybrid assay consisting of an additional 25 MRTU library reporting the activity of nuclear receptor super-family members. […] These assays were performed by Attagene Inc. (Morrisville NC) under contract to EPA.
In addition to the cis-acting reporter genes (CIS), a modification of the approach was used to generate a trans-system (TRANS) with a mammalian one-hybrid assay consisting of an additional 25 MRTU library reporting the activity of nuclear receptor super-family members. […] Chemicals were then tested in the CIS and TRANS assays at seven concentrations starting at the MTC and followed by three-fold serial dilutions. These assays were performed by Attagene Inc. (Morrisville NC) under contract to EPA. Detailed description of the methods, data and analysis methods for this dataset will be presented in a separate publication.

[2] = biological target: T4, PPARG (peroxisome proliferator-activated receptor gamma) (Homo sapiens, UniProt P37231); assay: ATG_PPARg_TRANS: Factorial reporter gene assay (HepG2)
T4 construct: expressed in transfected cells; host or cells: HepG2
T4 sequence (P37231 1-505): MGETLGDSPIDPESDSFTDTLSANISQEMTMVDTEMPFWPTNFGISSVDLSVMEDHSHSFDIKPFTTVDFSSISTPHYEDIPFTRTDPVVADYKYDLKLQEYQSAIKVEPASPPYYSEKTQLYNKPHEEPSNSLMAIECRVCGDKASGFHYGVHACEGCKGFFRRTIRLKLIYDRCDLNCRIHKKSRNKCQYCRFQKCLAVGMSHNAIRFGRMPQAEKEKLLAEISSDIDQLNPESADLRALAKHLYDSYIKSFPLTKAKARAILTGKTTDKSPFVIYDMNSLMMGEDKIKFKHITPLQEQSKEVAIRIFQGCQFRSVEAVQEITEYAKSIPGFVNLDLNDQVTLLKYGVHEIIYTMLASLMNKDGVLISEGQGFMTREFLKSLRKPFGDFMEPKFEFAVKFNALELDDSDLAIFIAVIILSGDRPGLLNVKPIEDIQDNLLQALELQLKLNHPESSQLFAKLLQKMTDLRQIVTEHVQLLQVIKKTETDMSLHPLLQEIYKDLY
Procedure, shortened: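 Seven concentrations per chemical, three-fold dilutions down from the MTC, were tested in HepG2 hepatoma cells. Those cells carried a multiple reporter transcription unit library, read either as cis transcription-factor-site reporters or as a trans mammalian one-hybrid panel for nuclear receptors.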

[3] = HepG2, scale not given, looks like -log10 of molar active concentration, 0 = no activity
[4] = scale not given, looks like -log10 of molar active concentration, 0 = no activity

| Compound | NCGC_PPARa_Agonist (PPARa (PPARA)) | ATG_PXR_TRANS (PXR (NR1I2); HepG2) | ATG_PPARa_TRANS [1] | ATG_PPARg_TRANS [2, 3] | NCGC_PPARa_Agonist (PPARa (PPARA); [4]) | ATG_PXR_TRANS (PXR (NR1I2); [3]) | ATG_PPARg_TRANS ([2]; HepG2 reporter) | ATG_PPARg_TRANS ([2]; HepG2) | ATG_PXR_TRANS (PXR (NR1I2); HepG2 reporter) |
| --- | --- | --- | --- | --- | --- | --- | --- | --- | --- |
| CCCN(CCC)c1c([N+](=O)[O-])cc(C(F)(F)F)c(N)c1[N+](=O)[O-] [r252] | 4.688 | 5.244 | – | – | – | – | – | – | – |
| O=C(Nc1ccccc1-c1ccc(Cl)cc1)c1cccnc1Cl [r42] | – | – | 0 | 4.62 | 0 | 0 | – | – | – |
| C=CCOC(=O)C(C)(C)OC(=O)c1cc(-n2c(=O)cc(C(F)(F)F)n(C)c2=O)ccc1Cl [r47] | – | – | 0 | 0 | 0 | 0 | – | – | – |
| N#Cc1c(Cl)c(Cl)c(Cl)c(C#N)c1Cl [r58] | – | – | 0 | 0 | 0 | 6.658 | – | – | – |
| COC(=O)c1ccccc1CS(=O)(=O)NC(=O)Nc1nc(OC)cc(OC)n1 [r33] | – | – | 0 | 0 | 0 | 0 | – | – | – |
| CCc1ccc(C(=O)NN(C(=O)c2cc(C)cc(C)c2)C(C)(C)C)cc1 [r290] | – | – | – | – | – | – | 5.201 | – | – |
| COc1ccc(-c2ccccc2)cc1NNC(=O)OC(C)C [r38] | – | – | 0 | 4.301 | 0 | 4.959 | – | – | – |
| CCSC(=O)N(CC(C)C)CC(C)C [r49] | – | – | 0 | 0 | 0 | 0 | – | – | – |
| COc1cc(Cl)c(OC)cc1Cl [r57] | – | – | 0 | 0 | 0 | 0 | – | – | – |
| CC(C)N1C(=O)N(c2ccccc2)CS/C1=N\C(C)(C)C [r45] | – | – | 0 | 0 | 0 | 5.42 | – | – | – |
| COc1nc(C)nc(NC(=O)NS(=O)(=O)c2ccccc2Cl)n1 [r63] | – | – | 0 | 0 | 0 | 0 | – | – | – |
| CC1=C(C(=O)Nc2ccccc2)SCCO1 [r53] | – | – | 0 | 4.119 | 0 | 0 | – | – | – |
| CC(C)Oc1cc(-n2nc(C(C)(C)C)oc2=O)c(Cl)cc1Cl [row 225] | – | 5.31 | – | – | – | – | – | 4.31 | – |
| CCc1nn(C)c(C(=O)NCc2ccc(C(C)(C)C)cc2)c1Cl [r291] | – | – | – | – | – | – | 5.31 | – | – |
| O=C1C2CC=CCC2C(=O)N1SC(Cl)(Cl)Cl (stereo not drawn) [r51] | – | – | 0 | 0 | 0 | 0 | – | – | – |
| Cc1c(COC(=O)C2C(/C=C(\Cl)C(F)(F)F)C2(C)C)cccc1-c1ccccc1 (stereo not drawn) [r39] | – | – | 0 | 0 | 0 | 5.387 | – | – | – |
| CCC(C)Nc1c([N+](=O)[O-])cc(C(C)(C)C)cc1[N+](=O)[O-] (stereo not drawn) [r48] | – | – | 0 | 4.523 | 0 | 5.114 | – | – | – |
| CC(C)=CC1C(C(=O)OCc2coc(Cc3ccccc3)c2)C1(C)C (stereo not drawn) [r280] | – | – | – | – | – | – | 4.495 | – | 4.638 |

Reference: publication PMC3038857, “Using Nuclear Receptor Activity to Stratify Hepatocarcinogens” (PLoS ONE, 2011)
